Source: patent US10058493B2, “Oral care compositions and methods of use” (COLGATE-PALMOLIVE COMPANY, priority 2016, dated 2018)
“Also recorded” adds a separate entry of the source.

Legend:
Set-up in all cases: species or system human
[1] = Buffering effect on pH of saliva following sucrose challenge (bacterial acid production); settings: for effect on pH drop after sucrose challenge versus untreated control: Donors A-C, range of concentrations, 2, 4, 6 hours and overnight
Protocol: (§1) Aqueous solutions containing arginine and zinc salts were created to carry out the following Examples. Solution 1 was prepared by mixing L-arginine (0.375 g), zinc oxide (ZnO, 0.25 g), and zinc citrate trihydrate (0.125 g) in deionized water (24.25 mL). These values correspond to the following percentages by mass: 1.5% L-arginine, 1% ZnO, 0.5% zinc citrate trihydrate. Additional control solutions were prepared of each regent alone at equal concentrations. Each solution was diluted to 25 g total mass with deionized water.
Paraffin-stimulated whole saliva was collected from three healthy subjects (Donors A-C). Each saliva sample was mixed by ordinary means in the art. Prior to analysis, the ex-vivo saliva samples were pretreated with aliquots of the simple solutions to give a range of active dilutions (i.e., total Zn^2+ concentration of about 0-3000 ppm) including an untreated control in order to test for buffering effect against sucrose challenge as a function of zinc concentration. An initial pH of the treated sample was obtained. A sucrose solution (5%, 1 mL) was added to each saliva sample. The resultant was mixed for and then incubated at 37° C. and the pH was monitored at 2 hours, 4 hours, 6 hours, and overnight. Zinc concentration in each sample was determined by ICP-AES.
Further experiments were conducted to ensure that zinc oxide/zinc citrate/arginine, not its constituent parts, was needed to achieve the buffering capacity improvement described. The solutions tested were prepared according to the specifications as laid out in Table 3 above.

[2] = Buffering effect on pH of saliva following acid challenge with dilute hydrochloric acid; settings: 0.01 M HCl 6 mL; for acid buffering effect / pH of treated saliva after acid exposure: 20 min; for acid buffering effect: room temperature, Donors 1-3; for pH of treated saliva after acid exposure: all donors
Protocol: as §1
Paraffin-stimulated whole saliva was collected from three healthy subjects (Donors 1-3). Each saliva sample was mixed by ordinary means in the art. Immediately prior to analysis, the ex-vivo saliva samples were pretreated with aliquots of the simple solutions to give a range of active dilutions (i.e., total Zn^2+ concentration of about 0-1500 ppm) including an untreated control. The concentrations of actives (i.e., zinc oxide/zinc citrate/arginine, L-arginine, zinc oxide, zinc citrate) were varied between 0.0% to 50% across all samples, as shown in FIGS. 5-10.
An initial pH of the treated sample was obtained. Dilute hydrochloric acid (HCl, 0.01 M, 6 mL) was added to each saliva sample. The resultant was mixed for 20 minutes at room temperature. The pH of the sample was recorded at the conclusion of the reaction time. Zinc concentration in each sample was determined by ICP-AES.

[3] = Buffering effect on pH of saliva following acid challenge with cola beverage; settings: cola titration; 0.0625% reagent; FIG. 2
Protocol: as §1
Paraffin-stimulated whole saliva was collected from a healthy subject. Each saliva sample was mixed by an appropriate means. Immediately prior to analysis, the ex-vivo saliva samples were pretreated with aliquots of Solution 1 to give a range of active dilutions. A control sample containing untreated whole saliva was also prepared for comparison. The dilutions were prepared as in Table 2.
The samples as described in Table 2 were tested for buffering effect on the pH of saliva following acid challenge with a cola beverage. Initial pH values of the treated samples were obtained. A cola beverage (1 mL) was added to the saliva sample. The resultant was mixed for 30 seconds at room temperature at the conclusion of which the pH of the sample was recorded. This process was repeated step-wise up to a total of 40 mL of cola. […]

[4] = Buffering effect on pH of saliva following acid challenge with orange juice; settings: 0.0625% reagent in saliva (Table 3); FIG. 4
Protocol: as §1
Four solutions containing whole saliva and zinc oxide/zinc citrate/arginine at varying proportions were prepared in accordance with the methods laid out in Example 1 above. The solutions contained the same concentrations as Samples 1-4 as defined in Table 2. The samples were tested for buffering effect on the pH of saliva following acid challenge with orange juice. Initial pH values of the treated samples were obtained. Orange juice (0.1 mL) was added to the saliva sample. The resultant was mixed for 30 seconds at room temperature at the conclusion of which the pH of the sample was recorded. This process was repeated step-wise up to a total of 3.0 mL of orange juice. After this point, orange juice was added to the samples in an amount of 0.5 mL up to 5.0 mL. […]

| Structure (SMILES) | buffering effect of the 100 ppm arginine solution ([1]; donor C, FIG. 14) | buffering effect of the 100 ppm arginine solution ([1]; donors A or B, FIGS. 12-13) | amount of solution able to match the buffering effect of 200 μL or less zinc oxide/zinc citrate/arginine ([2]; FIGS. 5-7) | shift of isoelectric point in comparison to the untreated sample [3] | ability to buffer the acidic orange juice compared with controls [4] | effect on pH drop after sucrose challenge versus untreated control [1] | acid buffering effect ([2]; FIGS. 5-7) | pH of treated saliva after acid exposure [2] |
| --- | --- | --- | --- | --- | --- | --- | --- | --- |
| N=C(N)NCCC[C@H](N)C(=O)O [arginine, L-arginine] | modest buffering was observed | not seen | > 500 µL | acid shifted the isoelectric point in comparison to the untreated sample providing no acid neutralization benefit |  |  |  |  |
| O.O.O.O=C([O-])CC(O)(CC(=O)[O-])C(=O)[O-].O=C([O-])CC(O)(CC(=O)[O-])C(=O)[O-].[Zn+2].[Zn+2].[Zn+2] [zinc citrate, zinc citrate trihydrate] |  |  |  | acid shifted the isoelectric point in comparison to the untreated sample providing no acid neutralization benefit | no benefit in comparison the untreated control | Buffering effects were observed over the untreated control of each of the donors | little to no buffering effect at all | below 4.0 |
| [O]=[Zn] [zinc oxide] |  |  |  |  |  | Buffering effects were clearly observed over the untreated control of each of the donors | some pH stabilization; also recorded: not showing a dose response above 0.1% treatment | lower in saliva treated with ZnO than zinc oxide/zinc citrate/arginine treated saliva |
